From patent publication US6797255B1, “Methods and compositions for enhancing magnetic resonance imaging” (Mallinckrodt Inc., priority 1985, dated 2004)

Legend:
[1] = test system: rabbit; experiment: Tissue T1 and T2 relaxation times 5 min, 15 min or 1 week after 0.05 mmol/kg intravenous dose; type: in vivo; settings: 0.05 mmol/kg i.v.
Method: (§1) All experiments employing the complex dihydrogen bis(N-[N′-(2,6-dimethylphenyl)carbamoylmethyl]iminodiaceto)manganese (II) trihydrate were conducted following intravenous administration to rabbits. A 10 mM solution of the complex was used in these studies. Rabbits were anesthetized with ketamine/xylazine prior to treatment. The results given were obtained with a 10 mHz RADX proton spin analyzer.
In another study, employing an intravenous dose of 0.05 mmol of the complex/Kg, one rabbit was killed at time points of 5 min, 15 min or 1 week after dosing. In animals killed at 5 and 15 min, heart and liver T1 and T2 relaxation times were determined with 5 and 10 mHz instruments.

[2] = test system: rabbits; experiment: Tissue proton T1 and T2 relaxation times 15 min after intravenous administration (dose-response); type: in vivo; settings: for T1 relaxation time / T2 relaxation time: 10 mHz RADX
Method: as §1
Dose-response experiments were conducted on rabbits following intravenous injection of 0.01-0.10 mmol of the complex/kg. […]

[3] = 0.01-0.10 mmol/kg i.v., rabbits, 15 min
[4] = Bladder, 15 min after 0.01 mmol/kg i.v., rabbits
[5] = Bladder, 15 min after 0.03 mmol/kg i.v., rabbits
[6] = Bladder, 15 min after 0.08 mmol/kg i.v., rabbits
[7] = Bladder, 15 min after 0.10 mmol/kg i.v., 1 rabbit
[8] = Blood, 5 min, 0.01 mmol/kg i.v., rabbits
[9] = Blood, 5 min, 0.03 mmol/kg i.v., rabbits
[10] = Blood, 5 min, 0.08 mmol/kg i.v., rabbits
[11] = Blood, 5 min, 0.10 mmol/kg i.v., 1 rabbit
[12] = Blood, 10 min, 0.01 mmol/kg i.v., rabbits
[13] = Blood, 10 min, 0.03 mmol/kg i.v., rabbits
[14] = Blood, 10 min, 0.08 mmol/kg i.v., rabbits
[15] = Blood, 10 min, 0.10 mmol/kg i.v., 1 rabbit
[16] = Blood, 15 min, 0.01 mmol/kg i.v., rabbits
[17] = Blood, 15 min, 0.03 mmol/kg i.v., rabbits
[18] = Blood, 15 min, 0.08 mmol/kg i.v., rabbits
[19] = Fat, 15 min after 0.01 mmol/kg i.v., rabbits
[20] = Fat, 15 min after 0.03 mmol/kg i.v., rabbits
[21] = Fat, 15 min after 0.08 mmol/kg i.v., rabbits
[22] = Fat, 15 min after 0.10 mmol/kg i.v., 1 rabbit
[23] = Heart, 15 min after 0.01 mmol/kg i.v., rabbits
[24] = Heart, 15 min after 0.03 mmol/kg i.v., rabbits
[25] = Heart, 15 min after 0.08 mmol/kg i.v., rabbits
[26] = Heart, 15 min after 0.10 mmol/kg i.v., 1 rabbit
[27] = Large Intestine, 15 min after 0.01 mmol/kg i.v., rabbits
[28] = Large Intestine, 15 min after 0.03 mmol/kg i.v., rabbits
[29] = Large Intestine, 15 min after 0.08 mmol/kg i.v., rabbits
[30] = Large Intestine, 15 min after 0.10 mmol/kg i.v., 1 rabbit
[31] = Large Intestine, rabbits, 15 min
[32] = Liver, 15 min after 0.01 mmol/kg i.v., rabbits
[33] = Liver, 15 min after 0.03 mmol/kg i.v., rabbits
[34] = Liver, 15 min after 0.08 mmol/kg i.v., rabbits
[35] = Liver, 15 min after 0.10 mmol/kg i.v., 1 rabbit

Cc1cccc(C)c1NC(=O)CN(CC(=O)[O-])CC(=O)O.Cc1cccc(C)c1NC(=O)CN(CC(=O)[O-])CC(=O)O.O.O.O.[Mn+2] [Example 2]
heart and liver T1 values ([1]; killed at 5 and 15 min, 5 and 10 mHz instruments): reduced tissue T1 values at both frequencies
tissue T1 and T2 relaxation times ([1]; rabbit killed at 1 week): returned to control values
effect on tissue T1 relaxation times [2, 3]: dose-related decrease
effect on tissue T2 relaxation times [2, 3]: minimally affected
T1 relaxation time [2, 4]: 380 ms
T2 relaxation time [2, 4]: 84 ms
T1 relaxation time [2, 5]: 312 ms
T2 relaxation time [2, 5]: 68 ms
T1 relaxation time [2, 6]: 173 ms
T2 relaxation time [2, 6]: 60 ms
T1 relaxation time [2, 7]: 159 ms
T2 relaxation time [2, 7]: 61 ms
Approximate ED50, intravenous dose to reduce tissue T1 by 50% ([2]; Bladder, rabbits, 15 min): 0.060 mmol/kg
Approximate ED50, intravenous dose to reduce tissue T2 by 50% ([2]; Bladder, rabbits, 15 min): 0.51 mmol/kg
T1 relaxation time [2, 8]: 554 ms
T2 relaxation time [2, 8]: 161 ms
T1 relaxation time [2, 9]: 192 ms
T2 relaxation time [2, 9]: 110 ms
T1 relaxation time [2, 10]: 70 ms
T2 relaxation time [2, 10]: 56 ms
T1 relaxation time [2, 11]: 64 ms
T2 relaxation time [2, 11]: 55 ms
T1 relaxation time [2, 12]: 604 ms
T2 relaxation time [2, 12]: 165 ms
T1 relaxation time [2, 13]: 283 ms
T2 relaxation time [2, 13]: 119 ms
T1 relaxation time [2, 14]: 96 ms
T2 relaxation time [2, 14]: 72 ms
T1 relaxation time [2, 15]: 398 ms
T2 relaxation time [2, 15]: 179 ms
T1 relaxation time [2, 16]: 639 ms
T2 relaxation time [2, 16]: 171 ms
T1 relaxation time [2, 17]: 368 ms
T2 relaxation time [2, 17]: 141 ms
T1 relaxation time [2, 18]: 115 ms
T2 relaxation time [2, 18]: 82 ms
T1 relaxation time [2, 19]: 148 ms
T2 relaxation time [2, 19]: 129 ms
T1 relaxation time [2, 20]: 136 ms
T2 relaxation time [2, 20]: 122 ms
T1 relaxation time [2, 21]: 125 ms
T2 relaxation time [2, 21]: 122 ms
T1 relaxation time [2, 22]: 122 ms
T2 relaxation time [2, 22]: 89 ms
Approximate ED50, intravenous dose to reduce tissue T1 by 50% ([2]; Fat, rabbits, 15 min): 11.94 mmol/kg
T1 relaxation time [2, 23]: 370 ms
T2 relaxation time [2, 23]: 64 ms
T1 relaxation time [2, 24]: 222 ms
T2 relaxation time [2, 24]: 56 ms
T1 relaxation time [2, 25]: 104 ms
T2 relaxation time [2, 25]: 43 ms
T1 relaxation time [2, 26]: 84 ms
T2 relaxation time [2, 26]: 39 ms
Approximate ED50, intravenous dose to reduce tissue T1 by 50% ([2]; Heart, rabbits, 15 min): 0.037 mmol/kg
Approximate ED50, intravenous dose to reduce tissue T2 by 50% ([2]; Heart, rabbits, 15 min): 0.38 mmol/kg
T1 relaxation time [2, 27]: 245 ms
T2 relaxation time [2, 27]: 65 ms
T1 relaxation time [2, 28]: 155 ms
T2 relaxation time [2, 28]: 52 ms
T1 relaxation time [2, 29]: 123 ms
T2 relaxation time [2, 29]: 43 ms
T1 relaxation time [2, 30]: 166 ms
T2 relaxation time [2, 30]: 53 ms
Approximate ED50, intravenous dose to reduce tissue T1 by 50% [2, 31]: 0.050 mmol/kg
Approximate ED50, intravenous dose to reduce tissue T2 by 50% [2, 31]: 0.19 mmol/kg
T1 relaxation time [2, 32]: 92 ms
T2 relaxation time [2, 32]: 41 ms
T1 relaxation time [2, 33]: 49 ms
T2 relaxation time [2, 33]: 25 ms
T1 relaxation time [2, 34]: 28 ms
T2 relaxation time [2, 34]: 18 ms
T1 relaxation time [2, 35]: 143 ms
T2 relaxation time [2, 35]: 87 ms
Approximate ED50, intravenous dose to reduce tissue T2 by 50% ([2]; Liver, rabbits, 15 min): 0.04 mmol/kg
Approximate ED50, intravenous dose to reduce tissue T1 by 50% ([2]; Liver, rabbits, 15 min, listed as Dihydrogen Bis(N-[N′-(2,6-dimethylphenyl)carbamoylmethyl]iminodiaceto)manganese(, Trihydrate)): 0.0067 mmol/kg
Approximate ED50, intravenous dose to reduce tissue T1 by 50% ([2]; Liver, rabbits, 15 min, listed as dihydrogen bis(N-[N′-(2,6-dimethylphenyl)carbamoylmethyl]-iminodiaceto)manganese, Trihydrate): less than 0.01 mmol/kg
T1 relaxation time ([2]; Lung, 15 min after 0.01 mmol/kg i.v., rabbits): 464 ms
